Experiment [1] deals with T1, ATPase family AAA domain-containing protein 2B (Homo sapiens, UniProt Q9ULI0).
T1 sequence (Q9ULI0 whole entry): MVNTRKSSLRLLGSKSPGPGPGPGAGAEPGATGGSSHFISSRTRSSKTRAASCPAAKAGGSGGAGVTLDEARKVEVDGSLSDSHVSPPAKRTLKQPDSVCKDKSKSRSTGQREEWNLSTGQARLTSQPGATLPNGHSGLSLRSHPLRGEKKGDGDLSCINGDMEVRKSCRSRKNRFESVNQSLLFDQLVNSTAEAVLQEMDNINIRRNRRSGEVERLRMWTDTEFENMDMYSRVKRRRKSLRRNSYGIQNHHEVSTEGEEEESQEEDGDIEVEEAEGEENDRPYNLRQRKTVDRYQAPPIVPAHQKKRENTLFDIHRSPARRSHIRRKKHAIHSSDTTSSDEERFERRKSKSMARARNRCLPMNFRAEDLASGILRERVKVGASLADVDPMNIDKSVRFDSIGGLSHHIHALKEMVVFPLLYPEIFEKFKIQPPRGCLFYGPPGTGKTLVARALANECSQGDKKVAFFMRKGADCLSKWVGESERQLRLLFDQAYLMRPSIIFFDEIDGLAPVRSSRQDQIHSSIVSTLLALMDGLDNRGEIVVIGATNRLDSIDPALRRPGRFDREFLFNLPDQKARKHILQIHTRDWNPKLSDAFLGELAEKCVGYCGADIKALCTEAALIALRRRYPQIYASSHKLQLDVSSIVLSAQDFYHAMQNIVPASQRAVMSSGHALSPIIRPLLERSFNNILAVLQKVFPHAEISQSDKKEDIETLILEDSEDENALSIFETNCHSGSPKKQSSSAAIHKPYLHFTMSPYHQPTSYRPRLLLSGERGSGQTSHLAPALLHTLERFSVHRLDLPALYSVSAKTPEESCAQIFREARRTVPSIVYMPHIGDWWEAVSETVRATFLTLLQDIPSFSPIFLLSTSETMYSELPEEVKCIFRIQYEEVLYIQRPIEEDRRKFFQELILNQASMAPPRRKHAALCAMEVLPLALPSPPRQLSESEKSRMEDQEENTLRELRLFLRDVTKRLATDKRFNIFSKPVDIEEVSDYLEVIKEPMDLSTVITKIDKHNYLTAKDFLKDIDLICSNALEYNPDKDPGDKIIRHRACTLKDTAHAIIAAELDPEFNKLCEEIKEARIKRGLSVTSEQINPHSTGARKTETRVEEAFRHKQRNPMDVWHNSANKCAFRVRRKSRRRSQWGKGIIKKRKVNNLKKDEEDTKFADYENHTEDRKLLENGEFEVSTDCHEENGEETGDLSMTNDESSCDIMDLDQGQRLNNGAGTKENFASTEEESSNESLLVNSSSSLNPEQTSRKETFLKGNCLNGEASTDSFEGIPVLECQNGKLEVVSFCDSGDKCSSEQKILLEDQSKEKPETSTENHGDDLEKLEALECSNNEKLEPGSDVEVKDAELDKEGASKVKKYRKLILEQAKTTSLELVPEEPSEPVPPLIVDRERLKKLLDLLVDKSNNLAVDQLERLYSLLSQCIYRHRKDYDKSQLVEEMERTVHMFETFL
Description: Binding affinity to human ATAD2B BRD assessed as dissociation constant by isothermal titration calorimetry. On the technique in general: In ITC the heat of successive injections is recorded.

Experiment [2] deals with T2, ATPase family AAA domain-containing protein 2 (Homo sapiens, UniProt Q6PL18).
T2 sequence (Q6PL18 whole entry): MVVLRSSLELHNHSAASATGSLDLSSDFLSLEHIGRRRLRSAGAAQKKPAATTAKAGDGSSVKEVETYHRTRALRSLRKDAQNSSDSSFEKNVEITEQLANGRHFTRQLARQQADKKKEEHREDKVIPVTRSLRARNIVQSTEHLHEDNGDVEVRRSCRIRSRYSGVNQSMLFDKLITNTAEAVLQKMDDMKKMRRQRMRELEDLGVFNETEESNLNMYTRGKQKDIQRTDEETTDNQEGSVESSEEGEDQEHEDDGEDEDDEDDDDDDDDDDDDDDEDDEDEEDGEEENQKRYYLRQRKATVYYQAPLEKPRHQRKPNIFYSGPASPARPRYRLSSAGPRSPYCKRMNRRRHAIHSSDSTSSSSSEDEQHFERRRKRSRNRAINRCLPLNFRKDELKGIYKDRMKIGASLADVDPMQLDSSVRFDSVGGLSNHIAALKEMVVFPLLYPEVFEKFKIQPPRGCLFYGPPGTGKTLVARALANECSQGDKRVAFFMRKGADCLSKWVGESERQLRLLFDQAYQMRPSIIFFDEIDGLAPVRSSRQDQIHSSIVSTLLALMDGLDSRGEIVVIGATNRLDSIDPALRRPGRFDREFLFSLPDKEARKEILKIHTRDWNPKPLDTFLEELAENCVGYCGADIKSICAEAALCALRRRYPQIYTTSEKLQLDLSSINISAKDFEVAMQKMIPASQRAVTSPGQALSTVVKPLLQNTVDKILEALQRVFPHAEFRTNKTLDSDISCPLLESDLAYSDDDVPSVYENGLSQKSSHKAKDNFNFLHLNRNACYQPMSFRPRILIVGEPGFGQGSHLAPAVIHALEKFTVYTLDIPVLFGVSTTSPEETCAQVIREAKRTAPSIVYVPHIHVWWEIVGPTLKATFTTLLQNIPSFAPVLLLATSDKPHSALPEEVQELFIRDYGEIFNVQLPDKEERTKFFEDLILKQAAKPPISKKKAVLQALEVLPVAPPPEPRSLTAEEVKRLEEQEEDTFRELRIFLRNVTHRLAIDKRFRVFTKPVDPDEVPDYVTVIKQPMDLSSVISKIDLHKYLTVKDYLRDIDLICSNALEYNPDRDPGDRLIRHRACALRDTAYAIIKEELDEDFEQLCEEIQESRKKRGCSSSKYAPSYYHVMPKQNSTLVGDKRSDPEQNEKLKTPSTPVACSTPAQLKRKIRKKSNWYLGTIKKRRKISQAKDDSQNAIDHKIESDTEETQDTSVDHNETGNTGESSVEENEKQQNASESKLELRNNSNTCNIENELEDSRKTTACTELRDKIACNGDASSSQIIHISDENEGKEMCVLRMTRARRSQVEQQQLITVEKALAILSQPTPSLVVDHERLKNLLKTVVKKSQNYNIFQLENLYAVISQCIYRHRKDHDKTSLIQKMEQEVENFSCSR
The experiment in a line: Binding affinity to human ATAD2 BRD assessed as dissociation constant by isothermal titration calorimetry.

Turning to `CC(=O)NCCCC[C@H](NC(=O)[C@H](CO)NC(=O)[C@H](CCCNC(=N)N)NC(=O)CNC(=O)[C@@H](N)CO)C(=O)NCC(=O)NCC(=O)N[C@@H](CCCCN)C(=O)NCC(=O)N[C@@H](CC(C)C)C(=O)NCC(=O)N[C@@H](CCCCN)C(=O)NCC(=O)NCC(=O)N[C@@H](C)C(=O)O`, the Kd entry in experiment [1] and in experiment [2] was “Not Active” throughout.
As to H-SGRGKTGGKARAKAKSR-OH, the Kd entry in experiment [1] and in experiment [2] was “Not Active” each time.
In the case of H-AGGK(Ac)AGK(Ac)DSGKAKTK-OH, the Kd entry in experiment [1] and in experiment [2] was “Not Active” in each case.
In the case of H-AGGKAGKDSGKAKTK-OH, the Kd entry in experiment [1] and in experiment [2] was “Not Active” throughout.
As to `CC(=O)NCCCC[C@H](NC(=O)[C@H](CC(=O)O)NC(=O)[C@H](CCCNC(=N)N)NC(=O)CNC(=O)[C@@H](N)CO)C(=O)NCC(=O)NCC(=O)N[C@@H](CCCCN)C(=O)NCC(=O)N[C@@H](CC(C)C)C(=O)NCC(=O)N[C@@H](CCCCN)C(=O)NCC(=O)NCC(=O)N[C@@H](C)C(=O)O`, the Kd result in experiment [1] and in experiment [2] was “Not Active” throughout.
In the case of H-AGGK(Ac)AGKDSGKAKTK-OH, the Kd result in experiment [2] was “Not Active”.

The values above are taken from ChEMBL document CHEMBL5506047, “Impact of Combinatorial Histone Modifications on Acetyllysine Recognition by the ATAD2 and ATAD2B Bromodomains” (J Med Chem, 2024).
